Where a name gives a salt, the structure may show the parent alone.
Key:
human MEK1 = human MEK1 (Homo sapiens, UniProt Q02750); experiment: MEK-1 Enzyme Assay (LANCE-HTRF); type: biochemical; conditions: 100 nM MEK1, 15 μM ATP, 300 nM ERK2, two hours; read-out: MEK inhibition
In short: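 TR-FRET readout of MEK1-catalysed ERK1 phosphorylation; after a 2 h reaction, Eu-anti-PY20 (5 nM) and anti-GST-APC (50 nM) were added in buffer with 50 mM EDTA and 0.05% BSA, then incubated 1 h in the dark.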

[1] = Microsomal stability assay, RLM; type: in vitro ADME; conditions: male, Sprague Dawley, pooled rat liver microsomes, pH 7.4; 3 μM compound, 0.5 mg/ml rat liver microsomes, 37° C., 2 mM NADPH; read-out: RLM t1/2
Experimental: (§1) Assay 3: Microsomal Stability Assay
(§2) Compounds were tested on their stability in human, rat and mouse liver microsomal preparations (HLM, RLM and MLM respectively). At a final concentration of 3 μM, compounds were incubated at 37° C. with 0.5 mg/ml human, rat or mouse liver microsomes in a buffer containing 50 mM phosphate, pH 7.4 and 2 mM NADPH. Pooled human liver microsomes or pooled male rat liver microsomes (Sprague Dawley) were obtained from NatuTec (Frankfurt, Germany). Incubations without NADPH served as negative controls. Reactions were stopped after 0, 15, 30, 45 or 60 min by the addition of acetonitrile and microsomes were pelleted by centrifugation (10 min at 6200×g). Supernatants were analyzed by HPLC regarding the concentration of mother compound. Finally, the half life of compounds in the regarding microsomal preparation was calculated.

[2] = Microsomal stability assay, HLM; type: in vitro ADME; conditions: pooled human liver microsomes, pH 7.4; 3 μM compound, 0.5 mg/ml human liver microsomes, 37° C., 2 mM NADPH; read-out: HLM t1/2
Experimental: as §1, §2

[3] = test system: human melanoma A375 cells; experiment: Tumor cell proliferation assay (ATP Lite), A375; type: cell-based; conditions: A-375, 96 h, 4 days
In short: (§3)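 Cells seeded at 1500/well (C26) or 2000/well (A375, MiaPaCa-2) grew overnight, then were exposed to serially diluted compounds (0.25% DMSO final) for 4 days in serum-containing DMEM or RPMI. Viability read by ATPlite luminescence; IC50 is the concentration giving 50% cell death.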

[4] = test system: human pancreatic MiaPaCa-2 cells; experiment: Tumor cell proliferation assay (ATP Lite), MiaPaCa-2; type: cell-based; conditions: MIA PaCa-2, 96 h, 4 days
In short: as §3

Murine colon C26 cells = experiment: Tumor cell proliferation assay (ATP Lite), C26; type: cell-based; conditions: Mus musculus, 96 h, 4 days
In short: as §3

Caco-2 cells = experiment: Caco-2 permeability assay; type: in vitro ADME; conditions: 10 μM, pH 7.4, 120 minutes
Experimental: Assay 4: Caco-2 Permeability Assay
Caco-2 cells obtained from the ATCC at passage number 27 are used. Cells (passage number 40-60) were seeded on to Millipore Multiscreen Caco-2 plates or Falcon HTS inserts at 1×10^5 cells/cm2. Cells were cultured for 20 days in DMEM and media was changed every two or three days. On day 20 the permeability study was performed.
Permeability was studied by applying compound to the apical surface of cell monolayers and measuring compound permeation into the basolateral compartment. The experiment was also performed in the reverse direction (B-A) to investigate active transport. Hanks Balanced Salt Solution (HBSS) pH 7.4 buffer with 25 mM HEPES and 10 mM glucose at 37° C. was used as the medium in permeability studies. Incubations were carried out in an atmosphere of 5% CO2 with a relative humidity of 95%.
The monolayers were prepared by rinsing both basolateral and apical surfaces twice with HBSS at 37° C. Cells were then incubated with HBSS in both apical and basolateral compartments for 40 minutes to stabilize physiological parameters.
HBSS was then removed from the apical compartment and replaced with test compound dosing solutions. The solutions were made by diluting 10 mM DMSO concentrates with HBSS to give a final test compound concentration of 10 μM (final DMSO concentration adjusted to 1%). The fluorescent integrity marker lucifer yellow was also included in the dosing solution. Analytical standards were made from dosing solutions. Test compound permeability was assessed in duplicate. On each plate compounds of known permeability characteristics were run as controls.
The apical compartment inserts were then placed into ‘companion’ plates containing fresh HBSS. For basolateral to apical (B-A) experiments the experiment was initiated by replacing buffer in the inserts then placing them in companion plates containing dosing solutions. At 120 minutes the companion plate was removed and apical and basolateral samples diluted for analysis by LC-MS/MS (the donor compartment was also sampled to permit determination of starting concentration after non-specific binding has occurred).
The integrity of the monolayers throughout the experiment is checked by monitoring lucifer yellow permeation using fluorimetric analysis. Lucifer yellow permeation was low if monolayers have not been damaged. Test and control compounds were quantified by LC-MS/MS cassette analysis using a 5-point calibration with appropriate dilution of the samples. Should lucifer yellow Papps were above QC limits in more than one well per test compound, the compound was re-tested.
The permeability coefficient for each compound (Papp) was calculated from the following equation: Papp=[dQ/dt]/[C0×A]
Whereby dQ/dt is the rate of permeation of the drug across the cells, C0 is the donor compartment concentration at time zero and A is the area of the cell monolayer. C0 is obtained from analysis of the donor compartment at the end of the incubation period.
Test compounds were grouped into low, medium or high absorption potential based on comparison with control compounds, which have known human absorption.
In addition, permeation was studied in both directions across the cells, and an asymmetry index was reported from mean A-B and B-A data. This was derived from: Papp(B-A)/Papp(A-B)
Wherein “+” means a caco A-B and caco B-A value of 1-10 and “++” means a caco A-B and caco B-A value of 11-100.

Chain of human MEK1 (Q02750 whole entry): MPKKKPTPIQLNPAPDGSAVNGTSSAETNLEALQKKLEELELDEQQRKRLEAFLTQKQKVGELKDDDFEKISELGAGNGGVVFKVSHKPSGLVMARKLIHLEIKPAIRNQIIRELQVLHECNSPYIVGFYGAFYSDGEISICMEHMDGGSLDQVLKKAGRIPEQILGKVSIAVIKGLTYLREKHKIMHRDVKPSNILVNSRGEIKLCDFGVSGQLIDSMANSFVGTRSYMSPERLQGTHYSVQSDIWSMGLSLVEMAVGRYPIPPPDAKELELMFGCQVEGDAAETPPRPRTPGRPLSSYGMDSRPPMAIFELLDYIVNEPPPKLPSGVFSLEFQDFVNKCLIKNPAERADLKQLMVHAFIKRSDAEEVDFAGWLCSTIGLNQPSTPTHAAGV

SMILES | IC50 (human MEK1) [µM] | half-life at 3 µM [1] [min] | half-life at 3 µM [2] [min] | IC50 [3] [µM] | IC50 [4] [µM] | IC50 (Murine colon C26 cells) [µM] | Caco A-B (Caco-2 cells; Papp apical to basolateral) | Caco B-A (Caco-2 cells; Papp basolateral to apical)
Cc1cc(I)ccc1Nc1cnccc1C(=O)NS(C)(=O)=O [Example 123, N-[3-(4-Iodo-2-methyl-phenylamino)-pyridine-4-carbonyl]-methanesulfonamide] | < 1 | 1 to 30 | 31 to 120 | – | – | – | – | –
O=C(NC1CCCC1)c1ccncc1Nc1ccc(I)cc1F [Example 60, N-cyclopentyl-3-[(2-fluoro-4-iodophenyl)amino]isonicotinamide] | < 1 | – | – | ≤ 3 | ≤ 3 | ≤ 3 | – | –
NC1CCN(C(=O)c2ccncc2Nc2ccc(I)cc2F)CC1 [Example 44, 4-[(4-aminopiperidin-1-yl)carbonyl]-N-(2-fluoro-4-iodophenyl)pyridin-3-amine hydrochloride] | < 1 | – | – | ≤ 3 | 3 to 10 | 3 to 10 | – | –
O=C(NN1CCOCC1)c1ccncc1Nc1ccc(I)cc1F [Example 25, 3-[(2-fluoro-4-iodophenyl)amino]-N-morpholin-4-ylisonicotin-amide] | < 1 | – | – | ≤ 3 | ≤ 3 | ≤ 3 | – | –
O=C(O)c1ccc(CCNC(=O)c2ccncc2Nc2ccc(I)cc2F)cc1 [Example 102, 4-[2-({3-[(2-fluoro-4-iodophenyl)amino]isonicotinoyl}-amino)ethyl]benzoic acid] | < 1 | – | – | ≤ 3 | 3 to 10 | 3 to 10 | – | –
O=C(NNc1ccccc1)c1ccncc1Nc1ccc(I)cc1F [Example 32, 3-[(2-fluoro-4-iodophenyl)amino]-N′-phenylisonicotinohydrazide] | < 1 | – | – | ≤ 3 | ≤ 3 | ≤ 3 | – | –
CC(C)(C)OC(=O)NNC(=O)c1ccncc1Nc1ccc(I)cc1F [Example 45, tert-butyl 2-{3-[(2-fluoro-4-iodophenyl)amino]-isonicotinoyl}hydrazine-carboxylate] | < 1 | – | – | ≤ 3 | 3 to 10 | 3 to 10 | – | –
CC(C)(C)ONC(=O)c1ccncc1Nc1ccc(I)cc1Cl [Example 65] | < 1 | – | – | ≤ 3 | 3 to 10 | 3 to 10 | – | –
O=C(NNC(=O)c1n[nH]c2ccccc12)c1ccncc1Nc1ccc(I)cc1F [Example 28, N′-{3-[(2-fluoro-4-iodophenyl)amino]isonicotinoyl}-1H-indazole-3-carbohydrazide] | < 1 | – | – | ≤ 3 | 3 to 10 | 3 to 10 | – | –
CC(O)CNC(=O)c1ccncc1Nc1ccc(I)cc1F (centres unmarked) [Example 14, 3-[(2-fluoro-4-iodophenyl)amino]-N-(2-hydroxypropyl)-isonicotinamide] | < 1 | – | – | ≤ 3 | ≤ 3 | ≤ 3 | – | –
CNCCNc1nnc(-c2ccncc2Nc2ccc(Br)cc2F)o1 [Example 128, N-{5-[3-(4-Bromo-2-fluoro-phenylamino)-pyridin-4-yl]-[1,3,4]oxadiazol-2-yl}-N′-methyl-ethane-1,2-diamine] | < 1 | 31 to 120 | > 120 | – | – | – | ++ (a caco A-B and caco B-A value of 11-100) | ++ (a caco A-B and caco B-A value of 11-100)
O=C(NOCc1ccccc1)c1ccncc1Nc1ccc(I)cc1Cl [Example 81, N-Benzyloxy-3-(2-chloro-4-iodo-phenylamino)-isonicotinamide] | < 1 | – | – | ≤ 3 | 3 to 10 | 3 to 10 | – | –
COc1cccc(C(=O)NNC(=O)c2ccncc2Nc2ccc(I)cc2F)c1 [Example 55, 3-[(2-fluoro-4-iodophenyl)amino]-N′-(3-methoxybenzoyl)-isonicotinohydrazide] | < 1 | – | – | ≤ 3 | 3 to 10 | 3 to 10 | – | –
NNC(=O)c1ccncc1Nc1ccc(I)cc1F [Example 51, 3-[(2-fluoro-4-iodophenyl)amino]isonicotinohydrazide] | < 1 | – | – | ≤ 3 | ≤ 3 | 3 to 10 | – | –
O=C(NCCCO)c1cc(Br)ncc1Nc1ccc(I)cc1F [Example 70, 2-Bromo-5-(2-fluoro-4-iodo-phenylamino)-N-(3-hydroxy-propyl)-isonicotinamide] | < 1 | – | – | ≤ 3 | ≤ 3 | ≤ 3 | – | –
O=C(NOC[C@@H](O)CO)c1ccncc1Nc1ccc(I)cc1F [Example 75, N-{[(2S)-2,3-dihydroxypropyl]oxy}-3-[(2-fluoro-4-iodophenyl)-amino]isonicotin-amide] | < 1 | – | – | ≤ 3 | ≤ 3 | ≤ 3 | – | –
COC(=O)c1ccncc1Nc1ccc(I)cc1Cl [Example 10, Methyl 3-[(2-chloro-4-iodophenyl)amino]isonicotinate] | < 1 | – | – | ≤ 3 | ≤ 3 | 3 to 10 | – | –
O=C(NCc1ccccn1)c1ccncc1Nc1ccc(I)cc1F [Example 40, 3-[(2-fluoro-4-iodophenyl)amino]-N-(pyridin-2-ylmethyl)-isonicotinamide] | < 1 | – | – | ≤ 3 | 3 to 10 | 3 to 10 | – | –
COc1ccccc1CCNC(=O)c1ccncc1Nc1ccc(I)cc1F [Example 27, 3-[(2-fluoro-4-iodophenyl)amino]-N-[2-(2-methoxyphenyl)-ethyl]isonicotinamide] | < 1 | – | – | 3 to 10 | 3 to 10 | 3 to 10 | – | –
O=C(c1ccncc1Nc1ccc(I)cc1F)N1CCOCC1 [Example 17, [3-(2-Fluoro-4-iodo-phenylamino)-pyridin-4-yl]-morpholin-4-yl-methanone] | < 1 | – | – | ≤ 3 | ≤ 3 | ≤ 3 | – | –
